# Measured values reported in US9828368B2 (MERCK SHARP & DOHME CORP., priority 2013, dated 2017).
# Experiments:
# human orexin-2 receptor = human orexin-2 receptor (Homo sapiens (Human), UniProt O43614); assay: FLIPR Ca2+ flux assay, hOX2R; format: cell-based; conditions: CHO cells expressing human orexin-2 receptor; agonist 70 pM Ala-6,12 orexin-A
# Protocol: In a typical experiment the OX1 and OX2 receptor antagonistic activity of the compounds of the present invention was determined in accordance with the following experimental method. For intracellular calcium measurements, Chinese hamster ovary (CHO) cells expressing the rat orexin-1 receptor or the human orexin-2 receptor, are grown in Iscove's modified DMEM containing 2 mM L-glutamine, […], 1% hypoxanthine-thymidine supplement, 100 U/ml penicillin, 100 μg/ml streptomycin and 10% heat-inactivated fetal calf serum (FCS). The cells are seeded at 20,000 cells/well into Becton-Dickinson black 384-well clear bottom sterile plates coated with poly-D-lysine. All reagents were from GIBCO-Invitrogen Corp. The seeded plates are incubated overnight at 37° C. and 5% CO2. Ala-6,12 human orexin-A as the agonist is prepared as a 1 mM stock solution in 1% bovine serum albumin (BSA) and diluted in assay buffer (HBSS containing 20 mM HEPES, 0.1% BSA and 2.5 mM probenecid, pH7.4) for use in the assay at a final concentration of 70 pM. Test compounds are prepared as 10 mM stock solution in DMSO, then diluted in 384-well plates, first in DMSO, then assay buffer. On the day of the assay, cells are washed 3 times with 100 μl assay buffer and then incubated for 60 min (37° C., 5% CO2) in 60 μl assay buffer containing 1 μM Fluo-4AM ester, 0.02% pluronic acid, and 1% BSA. The dye loading solution is then aspirated and cells are washed 3 times with 100 μl assay buffer. 30 μl of that same buffer is left in each well. Within the Fluorescent Imaging Plate Reader (FLIPR, Molecular Devices), test compounds are added to the plate in a volume of 25 μl, incubated for 5 min and finally 25 μl of agonist is added. Fluorescence is measured for each well at 1 second intervals for 5 minutes and the height of each fluorescence peak is compared to the height of the fluorescence peak induced by 70 pM Ala-6,12 orexin-A with buffer in place of antagonist. […] The intrinsic orexin receptor antagonist activity of a compound which may be used in the present invention may be determined by these assays.
# hOX1R = hOX1R (Homo sapiens, UniProt O43613); assay: FLIPR Ca2+ flux assay, hOX1R; format: cell-based; conditions: CHO cells; agonist 70 pM Ala-6,12 orexin-A; rat orexin-1 receptor; read-out: hOX1R FLIPR IC50
# human orexin-2 receptor, sequence (O43614 whole entry): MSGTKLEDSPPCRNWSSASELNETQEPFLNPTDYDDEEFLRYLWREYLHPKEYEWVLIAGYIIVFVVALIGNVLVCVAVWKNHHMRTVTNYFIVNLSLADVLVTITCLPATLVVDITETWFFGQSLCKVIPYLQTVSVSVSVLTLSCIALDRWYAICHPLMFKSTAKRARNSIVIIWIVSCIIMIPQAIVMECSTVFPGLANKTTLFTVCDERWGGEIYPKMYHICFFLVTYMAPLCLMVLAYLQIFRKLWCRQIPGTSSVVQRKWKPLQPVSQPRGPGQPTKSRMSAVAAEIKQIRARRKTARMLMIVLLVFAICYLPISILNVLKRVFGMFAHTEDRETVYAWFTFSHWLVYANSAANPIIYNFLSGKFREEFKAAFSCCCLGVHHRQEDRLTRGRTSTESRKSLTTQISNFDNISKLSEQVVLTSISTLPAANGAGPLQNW
Molecule,IC50 (human orexin-2 receptor),IC50 (hOX1R)
"C[C@@H]1CC[C@@H](c2nc(C(C)(C)O)c(C(F)(F)F)o2)CN1C(=O)c1ccccc1-n1nccn1 [Example 54, (2-(2H-1,2,3-Triazol-2-yl)phenyl)((2R,5R)-5-(4-(2-hydroxypropan-2-yl)-5-(trifluoromethyl)oxazol-2-yl)-2-methylpiperidin-1-yl)methanone]",42 nM,240 nM
"Cc1nc([C@@H]2CC[C@@H](C)N(C(=O)c3ccccc3-n3nccn3)C2)oc1C(C)(C)O [Example 55, (2-(2H-1,2,3-Triazol-2-yl)phenyl)((2R,5R)-5-(5-(2-hydroxypropan-2-yl)-4-methyloxazol-2-yl)-2-methylpiperidin-1-yl)methanone]",63 nM,89 nM
"COC(=O)c1nc([C@@H]2CC[C@@H](C)N(C(=O)c3ccccc3-n3nccn3)C2)oc1-c1ccccc1 [Example 56, Methyl 2-((3R,6R)-1-(2-(2H-1,2,3-triazol-2-yl)benzoyl)-6-methylpiperidin-3-yl)-5-phenyloxazole-4-carboxylate]",1590 nM,359 nM
"C[C@@H]1CC[C@@H](c2nc(CO)c(-c3ccccc3)o2)CN1C(=O)c1ccccc1-n1nccn1 [Example 57, (2-(2H-1,2,3-Triazol-2-yl)phenyl)((2R,5R)-5-(4-(hydroxymethyl)-5-phenyloxazol-2-yl)-2-methylpiperidin-1-yl)methanone]",1170 nM,368 nM
"C[C@@H]1CC[C@@H](c2nc(CF)c(-c3ccccc3)o2)CN1C(=O)c1ccccc1-n1nccn1 [Example 58, (2-(2H-1,2,3-Triazol-2-yl)phenyl)((2R,5R)-5-(4-(fluoromethyl)-5-phenyloxazol-2-yl)-2-methylpiperidin-1-yl)methanone]",159 nM,220 nM
"COCc1nc([C@@H]2CC[C@@H](C)N(C(=O)c3ccccc3-n3nccn3)C2)oc1-c1ccccc1 [Example 59, (2-(2H-1,2,3-Triazol-2-yl)phenyl)((2R,5R)-5-(4-(methoxymethyl)-5-phenyloxazol-2-yl)-2-methylpiperidin-1-yl)methanone]",347 nM,100 nM
"C[C@@H]1CC[C@@H](c2nc(C(C)(C)O)c(-c3ccccc3)o2)CN1C(=O)c1ccccc1-n1nccn1 [Example 60, (2-(2H-1,2,3-Triazol-2-yl)phenyl)((2R,5R)-5-(4-(2-hydroxypropan-2-yl)-5-phenyloxazol-2-yl)-2-methylpiperidin-1-yl)methanone]",84 nM,76 nM
"C[C@@H]1CC[C@@H](c2nc(C(N)=O)c(-c3ccccc3)o2)CN1C(=O)c1ccccc1-n1nccn1 [Example 61, 2-((3R,6R)-1-(2-(2H-1,2,3-Triazol-2-yl)benzoyl)-6-methylpiperidin-3-yl)-5-phenyloxazole-4-carboxamide]",197 nM,65 nM
"C[C@@H]1CC[C@@H](c2nc(CC(C)(C)O)c(-c3ccccc3)o2)CN1C(=O)c1ccccc1-n1nccn1 [Example 68, (2-(2H-1,2,3-Triazol-2-yl)phenyl)((2R,5R)-5-(4-(2-hydroxy-2-methylpropyl)-5-phenyloxazol-2-yl)-2-methylpiperidin-1-yl)methanone]",62 nM,95 nM
"COC(C)(C)Cc1nc([C@@H]2CC[C@@H](C)N(C(=O)c3ccccc3-n3nccn3)C2)oc1-c1ccccc1 [Example 69, (2-(2H-1,2,3-Triazol-2-yl)phenyl)((2R,5R)-5-(4-(2-methoxy-2-methylpropyl)-5-phenyl-oxazol-2-yl)-2-methylpiperidin-1-yl)methanone]",287 nM,385 nM
"C[C@@H]1CC[C@@H](c2nc(CCO)c(-c3ccccc3)o2)CN1C(=O)c1ccccc1-n1nccn1 [Example 70, (2-(2H-1,2,3-Triazol-2-yl)phenyl)((2R,5R)-5-(4-(2-hydroxyethyl)-5-phenyloxazol-2-yl)-2-methylpiperidin-1-yl)methanone]",59 nM,38 nM
"C[C@@H]1CC[C@@H](c2nc(CCF)c(-c3ccccc3)o2)CN1C(=O)c1ccccc1-n1nccn1 [Example 71, (2-(2H-1,2,3-triazol-2-yl)phenyl)((2R,5R)-5-(4-(2-fluoroethyl)-5-phenyloxazol-2-yl)-2-methylpiperidin-1-yl)methanone]",61 nM,70 nM
"Cc1ccc(-n2nccn2)c(C(=O)N2C[C@H](c3ncc(C)o3)CC[C@H]2C)c1 [Example 72, (5-Methyl-2-(2H-1,2,3-triazol-2-yl)phenyl)((2R,5R)-2-methyl-5-(5-methyloxazol-2-yl)piperidin-1-yl)methanone]",433 nM,4540 nM
"C[C@@H]1CC[C@@H](c2ncc(C(C)(C)C)o2)CN1C(=O)c1ccccc1-n1nccn1 [Example 73, (2-(2H-1,2,3-Triazol-2-yl)phenyl)((2R,5R)-5-(5-(tert-butyl)oxazol-2-yl)-2-methylpiperidin-1-yl)methanone]",30 nM,151 nM
"C[C@@H]1CC[C@@H](c2ncc(-c3ccccc3)o2)CN1C(=O)c1ccccc1-n1nccn1 [Example 74, (2-(2H-1,2,3-Triazol-2-yl)phenyl)((2R, 5R)-2-methyl-5-(5-phenyloxazol-2-yl)piperidin-1-yl)methanone]",111 nM,55 nM
"C[C@@H]1CC[C@@H](c2ncc(C3CCC3)o2)CN1C(=O)c1ccccc1-n1nccn1 [Example 75, (2-(2H-1,2,3-Triazol-2-yl)phenyl)((2R, 5R)-5-(5-cyclobutyloxazol-2-yl)-2-methylpiperidin-1-yl)methanone]",16 nM,59 nM
"C[C@@H]1CC[C@@H](c2ncc(C3CC3)o2)CN1C(=O)c1ccccc1-n1nccn1 [Example 76, (2-(2H-1,2,3-Triazol-2-yl)phenyl)((2R, 5R)-5-(5-cyclopropyloxazol-2-yl)-2-methylpiperidin-1-yl)methanone]",33 nM,973 nM
"C[C@@H]1CC[C@@H](c2nc(-c3ccccc3)c(-c3ccccc3)o2)CN1C(=O)c1ccccc1-n1nccn1 [Example 77, (2-(2H-1,2,3-Triazol-2-yl)phenyl)((2R,5R)-5-(4,5-diphenyloxazol-2-yl)-2-methylpiperidin-1-yl)methanone]",515 nM,451 nM
"((2R,5R)-5-(4-(2-Hydroxypropan-2-yl)-5- methyloxazol-2-yl)-2-methylpiperidin-1-yl)(2- methoxyphenyl)methanone [Example 30]",29.4 nM,> 10000 nM
